Test [1] deals with P. falciparum Dd2 (PfLuc) line expressing firefly luciferase, asexual blood stage. Kind of test: microbe, parasite or virus in culture. To be noted: Plasmodium falciparum. It counts as cell-based, Plasmodium falciparum.
A further test relates to P. falciparum Dd2. Kind of test: SYBR green I asexual blood stage proliferation assay (96 h). It counts as cell-based, Plasmodium falciparum. As to conditions: Plasmodium falciparum, DD2, 11-pt dose response, 96hr.
Setting [2] is: DD2, read-out: CDD P. falciparum Luciferase ABS 11-pt Reconfirmation Dose Response (48hr): IC50 (μM), 11-pt dose response, 48hr.
The mark [3] stands for this setting: DD2, 8-pt dose response, 96hr, read-out: CDD P. falciparum Luciferase ABS 8-pt Reconfirmation Dose Response (96hr): IC50.
Where [4] appears, read: DD2, 8-pt dose response, 96hr, read-out: CDD P. falciparum Luciferase ABS 8-pt Reconfirmation Dose Response (96hr): Maximum inhibition (%).
Setting [5] is: DD2, 11-pt dose response, 48hr, read-out: CDD P. falciparum Luciferase ABS 11-pt Reconfirmation Dose Response (48hr): Maximum inhibition (%).
[6] abbreviates: DD2, 11-pt dose response, 96hr, read-out: CDD P. falciparum Luciferase ABS 11-pt Reconfirmation Dose Response (96hr): IC50.
The mark [7] stands for this setting: DD2, 11-pt dose response, 96hr, read-out: CDD P. falciparum Luciferase ABS 11-pt Reconfirmation Dose Response (96hr): Maximum inhibition (%).
Where [8] appears, read: Sybr Green I, read-out: CDD P. falciparum Sybr Green I ABS 11-pt Reconfirmation Dose Response (96hr): IC50.
The mark [9] stands for this setting: Sybr Green I, read-out: CDD P. falciparum Sybr Green I ABS 11-pt Reconfirmation Dose Response (96hr): Maximum inhibition (%).
Where [10] appears, read: DD2, read-out: P. falciparum Luciferase ABS 11-pt Reconfirmation Dose Response (48hr): IC50, 11-pt dose response, 48hr.
The mark [11] stands for this setting: DD2, 8-pt dose response, 96hr, read-out: P. falciparum Luciferase ABS 8-pt Reconfirmation Dose Response (96hr): IC50.
[12] abbreviates: DD2, 8-pt dose response, 96hr, read-out: P. falciparum Luciferase ABS 8-pt Reconfirmation Dose Response (96hr): Maximum inhibition (%).
The mark [13] stands for this setting: DD2, 11-pt dose response, 48hr, read-out: P. falciparum Luciferase ABS 11-pt Reconfirmation Dose Response (48hr): Maximum inhibition (%).
Where [14] appears, read: DD2, 11-pt dose response, 96hr, read-out: P. falciparum Luciferase ABS 11-pt Reconfirmation Dose Response (96hr): IC50.
[15] abbreviates: DD2, 11-pt dose response, 96hr, read-out: P. falciparum Luciferase ABS 11-pt Reconfirmation Dose Response (96hr): Maximum inhibition (%).
The mark [16] stands for this setting: read-out: P. falciparum Sybr Green I ABS 11-pt Reconfirmation Dose Response (96hr): IC50.
[17] abbreviates: read-out: P. falciparum Sybr Green I ABS 11-pt Reconfirmation Dose Response (96hr): Maximum inhibition (%).

Consider 10 compounds from article PMC7155171, “Probing the Open Global Health Chemical Diversity Library for Multistage-Active Starting Points for Next-Generation Antimalarials” (ACS Infectious Diseases, 2020).

Structures are written as SMILES. Read-outs that look alike come from different tables or passages of the source.

Take `Fc1cccc(F)c1Cn1c(C2CCNCC2)cc2cccnc21` [DDD01057378]: the IC50 in test [1] (setting [2]) came to 1.51 µM; in test [1] (setting [3]), 0.36 µM; in test [1] (setting [6]), 0.733 µM; in the test with P. falciparum Dd2 (setting [8]) it was 570 nM. Besides, the Emax in test [1] (setting [4]) worked out at 91.4%; in test [1] (setting [5]) it was 76%; in test [1] (setting [7]), 92.1%; in the test on P. falciparum Dd2 (setting [9]), 68.3%.

For the compound `Nc1cc(-c2c[nH]nc2C2CCCN2CCCc2ccccc2)ccn1` (centres unmarked) [DDD01057437], the IC50 in test [1] (setting [2]) came out at 3.06 µM; in test [1] (setting [3]) it was 0.59 µM; in test [1] (setting [6]), 0.669 µM; in the test with P. falciparum Dd2 (setting [8]) it was 2260 nM. For the same compound, the Emax in test [1] (setting [4]) came to 96.2%; in test [1] (setting [5]), 63%; in test [1] (setting [7]), 100%; with P. falciparum Dd2 (setting [9]) it was 96.1%.

On to `Cc1nc(-c2ccc(F)c(F)c2)cc(C2CCNCC2)n1` [DDD01058356], for which the concentration for half-maximal inhibition (IC50) in test [1] (setting [2]) was over 12.5 µM; in test [1] (setting [3]), 0.84 µM; in test [1] (setting [6]) it was 2.02 µM; in the test on P. falciparum Dd2 (setting [8]), 2100 nM. Also, the Emax amounted to 88.2% in test [1] (setting [4]), 44.3% in test [1] (setting [5]), 86.7% in test [1] (setting [7]) and 68.9% in the test on P. falciparum Dd2 (setting [9]).

As for `OC1(c2ccc(F)cc2)CCN(Cc2ccccc2N2CCCC2)CC1` [DDD01058479], the IC50 in test [1] (setting [10]) was determined as 3.24 µM; in test [1] (setting [11]) it was 1.38 µM; in test [1] (setting [14]) it was 1.95 µM; in the test with P. falciparum Dd2 (setting [16]) it was 5910 nM. Moreover, the Emax in test [1] (setting [12]) is 88.9%; in test [1] (setting [13]) it was 76.5%; in test [1] (setting [15]), 94.3%; in the test with P. falciparum Dd2 (setting [17]), 82.4%.

For `Clc1cccc(C[C@@H]2NCCC[C@@H]2Nc2ccccc2)c1` [DDD01058682], the IC50 came to 1.83 µM in test [1] (setting [10]), 1.21 µM in test [1] (setting [11]), 0.857 µM in test [1] (setting [14]) and 3390 nM in the test with P. falciparum Dd2 (setting [16]). For the same compound, the Emax in test [1] (setting [12]) was determined as 94.7%; in test [1] (setting [13]) it was 99.1%; in test [1] (setting [15]) it was 101%; in the test with P. falciparum Dd2 (setting [17]), 93.6%.

With `Cc1nn(C)cc1C1=NS(=O)(=O)N(C)C(C(=O)Nc2ccc(Cl)cc2)=C1` [DDD01058696], the IC50 in test [1] (setting [2]) worked out at 1.23 µM; in test [1] (setting [3]), 0.34 µM; in test [1] (setting [6]), 0.511 µM; in the test on P. falciparum Dd2 (setting [8]), 705 nM. Besides, the Emax in test [1] (setting [4]) was 96.1%; in test [1] (setting [5]), 100%; in test [1] (setting [7]), 101%; in the test with P. falciparum Dd2 (setting [9]), 98.7%.

For the compound `Cn1ccnc1CN(Cc1ccccn1)Cc1ccccc1Cl` [DDD01058741], the 50% inhibitory concentration (IC50) was found to be 2.68 µM in test [1] (setting [2]), 0.59 µM in test [1] (setting [3]), 0.592 µM in test [1] (setting [6]) and 6140 nM with P. falciparum Dd2 (setting [8]). In addition, the Emax in test [1] (setting [4]) stood at 93.9%; in test [1] (setting [5]), 94.3%; in test [1] (setting [7]) it was 100%; in the test on P. falciparum Dd2 (setting [9]), 83.5%.

Regarding `Cc1ncc(CN(Cc2ccccn2)Cc2ccccc2Cl)n1C` [DDD01058742], the half-inhibitory concentration (IC50) in test [1] (setting [2]) came to 3.44 µM; in test [1] (setting [3]), 0.51 µM; in test [1] (setting [6]), 0.999 µM; with P. falciparum Dd2 (setting [8]) it was 1540 nM. For the same compound, the Emax in test [1] (setting [4]) was 86.1%; in test [1] (setting [5]), 74%; in test [1] (setting [7]), 94.5%; in the test on P. falciparum Dd2 (setting [9]) it was 67.5%.

Take `Fc1ccc(F)c(CN2CCC(c3cc4ncccc4cn3)CC2)c1` [DDD01058752]: the 50% inhibitory concentration (IC50) in test [1] (setting [2]) was 1.07 µM; in test [1] (setting [3]), 0.41 µM; in test [1] (setting [6]) it was 0.979 µM; in the test with P. falciparum Dd2 (setting [8]) it was 859 nM. The Emax in test [1] (setting [4]) came to 96.2%; in test [1] (setting [5]) it was 94.1%; in test [1] (setting [7]) it was 98%; in the test with P. falciparum Dd2 (setting [9]), 90.5%.

Turning to `Fc1cccc(CN2CCC(c3cc4ncccc4cn3)CC2)c1F` [DDD01058754], the IC50 in test [1] (setting [2]) was 1.06 µM; in test [1] (setting [3]) it was 0.78 µM; in test [1] (setting [6]), 0.571 µM; in the test with P. falciparum Dd2 (setting [8]), 309 nM. Besides, the Emax was 94.4% in test [1] (setting [4]), 95.6% in test [1] (setting [5]), 99.9% in test [1] (setting [7]) and 86.9% with P. falciparum Dd2 (setting [9]).
